Measured values taken from article PMC11855827, “High-Throughput Screening of Five Compound Libraries for Anthelmintic Activity and Toxicity Leads to the Discovery of Two Flavonoid Compounds” (International Journal of Molecular Sciences, 2025).
“And” between values parts separate entries of the source, which are not always exact repeats. Equal values may be shown once.

Tested on: C. elegans
Conditions: Table S2, C. elegans SS assay, 110 μM, averages of 4 data points

CC(C)[C@H](N)C(=O)OCC(CO)OCn1cnc2c(=O)nc(N)[nH]c21.Cl (some centres unmarked) [Valganciclovir (hydrochloride)]
Percentage of motility inhibition 0 h: 9%
Percentage of motility inhibition 24 h: 0%

COC(=O)CC(NC(=O)[C@@H](NC(=O)OC(C)C)C(C)C)c1ccc(Cl)cc1 (some centres unmarked) [Valifenalate]
Percentage of motility inhibition 0 h: 26%
Percentage of motility inhibition 24 h: 3%

C=C[C@]1(C)C[C@@H](OC(=O)CSC(C)(C)CNC(=O)[C@H](N)C(C)C)[C@]2(C)[C@H](C)CC[C@]3(CCC(=O)[C@H]32)[C@@H](C)[C@@H]1O.Cl [Valnemulin (Hydrochloride)]
Percentage of motility inhibition 0 h: 29%
Percentage of motility inhibition 24 h: 12%

CN[C@H](CC(C)C)C(=O)N[C@H]1C(=O)N[C@@H](CC(N)=O)C(=O)N[C@H]2C(=O)N[C@H]3C(=O)N[C@H](C(=O)N[C@H](C(=O)O)c4cc(O)cc(O)c4-c4cc3ccc4O)[C@H](O)c3ccc(c(Cl)c3)Oc3cc2cc(c3O[C@@H]2O[C@H](CO)[C@@H](O)[C@H](O)[C@H]2O[C@H]2C[C@](C)(N)[C@H](O)[C@H](C)O2)Oc2ccc(cc2Cl)[C@H]1O.Cl [Vancomycin (hydrochloride)]
Percentage of motility inhibition 0 h: 15%
Percentage of motility inhibition 24 h: 0%

Cl.O[C@H]1CCN2Cc3ccccc3N=C12 [Vasicine (hydrochloride)]
Percentage of motility inhibition 0 h: 0%
Percentage of motility inhibition 24 h: 2%

O=c1c2ccccc2nc2n1CC[C@@H]2O [Vasicinone]
Percentage of motility inhibition 0 h: 0%
Percentage of motility inhibition 24 h: 0%

COC(=O)C1=CO[C@@H](O[C@@H]2O[C@H](CO)[C@@H](O)[C@H](O)[C@H]2O)[C@H]2[C@@H]1C(=O)C[C@@H]2C [Verbenalin]
Percentage of motility inhibition 0 h: 60%
Percentage of motility inhibition 24 h: 44%

O=c1cc(-c2ccc(O)cc2)oc2c([C@@H]3O[C@H](CO)[C@@H](O)[C@H](O)[C@H]3O)c(O)c([C@@H]3O[C@H](CO)[C@@H](O)[C@H](O)[C@H]3O)c(O)c12 [Vicenin 2]
Percentage of motility inhibition 0 h: 0%
Percentage of motility inhibition 24 h: 3%

O=c1cc(-c2ccc(O)cc2)oc2c([C@@H]3OC[C@@H](O)[C@H](O)[C@H]3O)c(O)c([C@@H]3O[C@H](CO)[C@@H](O)[C@H](O)[C@H]3O)c(O)c12 [Vicenin 3]
Percentage of motility inhibition 0 h: 15%
Percentage of motility inhibition 24 h: 3%

CC[C@]1(O)C[C@@H]2CN(CCc3c([nH]c4ccccc34)[C@@](C(=O)OC)(c3cc4c(cc3OC)N(C)[C@H]3[C@@](O)(C(=O)OC)[C@H](OC(C)=O)[C@]5(CC)C=CCN6CC[C@]43[C@@H]65)C2)C1.O=S(=O)(O)O [Vinblastine (sulfate)]
Percentage of motility inhibition 0 h: 0% and 8%
Percentage of motility inhibition 24 h: 0% and 1%

CC[C@]1(O)C[C@H]2CN(CCc3c([nH]c4ccccc34)[C@@](C(=O)OC)(c3cc4c(cc3OC)N(C=O)[C@H]3[C@@](O)(C(=O)OC)[C@H](OC(C)=O)[C@]5(CC)C=CCN6CC[C@]43[C@@H]65)C2)C1.O=S(=O)(O)O [Vincristine (sulfate)]
Percentage of motility inhibition 0 h: 0%
Percentage of motility inhibition 24 h: 0% and 7%

CCC1=C[C@@H]2CN(C1)Cc1c([nH]c3ccccc13)[C@@](C(=O)OC)(c1cc3c(cc1OC)N(C)[C@H]1[C@@](O)(C(=O)OC)[C@H](OC(C)=O)[C@]4(CC)C=CCN5CC[C@]31[C@@H]54)C2.O=C(O)C(O)C(O)C(=O)O.O=C(O)C(O)C(O)C(=O)O [Vinorelbine (ditartrate)]
Percentage of motility inhibition 0 h: 0%

C[C@@H]1O[C@@H](c2c(O)c([C@@H]3O[C@H](CO)[C@@H](O)[C@H](O)[C@H]3O)c(O)c3c(=O)cc(-c4ccc(O)cc4)oc23)[C@H](O)[C@H](O)[C@H]1O [Violanthin]
Percentage of motility inhibition 0 h: 0%
Percentage of motility inhibition 24 h: 19%

O=c1[nH]c2ccccc2c(-c2cccc(O)c2)c1O [Viridicatol]
Percentage of motility inhibition 0 h: 0%
Percentage of motility inhibition 24 h: 0%

C[C@@H]1O[C@@H](O[C@@H]2[C@@H](O)[C@H](O)[C@@H](CO)O[C@H]2c2c(O)cc(O)c3c(=O)cc(-c4ccc(O)cc4)oc23)[C@H](O)[C@H](O)[C@H]1O [Vitexin‐2"‐O‐rhamnoside]
Percentage of motility inhibition 0 h: 2%
Percentage of motility inhibition 24 h: 52%
